For 12 compounds, GI50 results are on record in ChEMBL document CHEMBL6127071, “Albusamides A-G: Hydroxylated Fatty Amine Derivatives from the Deep-Sea-Derived Actinomycete Streptomyces albus 228DD-066 and Their Cytotoxic Activity” (2024).

What is called GI50 is the concentration at which growth is held to half of that of the control.

Assay type in all cases: functional
The nature of assay [1]: Growth inhibition of human MRC9 cells assessed as reduction in cell viability measured after 48 hrs by SRB method. A general note: In SRB staining, fixed cells bind dye roughly in proportion to their protein.
For another assay, the system named is ACHN. Description: Growth inhibition of human ACHN cells assessed as reduction in cell viability measured after 48 hrs by SRB method.
In the next assay the test system is MDA-MB-231. Description: Growth inhibition of human MDA-MB-231 cells assessed as reduction in cell viability measured after 48 hrs by SRB method.
In another assay the test system is HCT-15. Description: Growth inhibition of human HCT-15 cells assessed as reduction in cell viability measured after 48 hrs by SRB method.
Another assay relates to PC-3. Description: Growth inhibition of human PC-3 cells assessed as reduction in cell viability measured after 48 hrs by SRB method.
A further assay has as its system NUGC-3. Description: Growth inhibition of human NUGC-3 cells assessed as reduction in cell viability measured after 48 hrs by SRB method.
In another assay the test system is NCI-H23. Description: Growth inhibition of human NCI-H23 cells assessed as reduction in cell viability measured after 48 hrs by SRB method.
Assay [2] is described as follows: Growth inhibition of human RPMI-1788 cells assessed as reduction in cell viability measured after 48 hrs by SRB method.
For the next assay, the system named is HL-60. As to the kind of experiment: Growth inhibition of human HL-60 cells assessed as reduction in cell viability measured after 48 hrs by SRB method.
In a further assay the test system is Raji. As to the kind of experiment: Growth inhibition of human Raji cells assessed as reduction in cell viability measured after 48 hrs by SRB method.
The subject of another assay is WSUDLCL2. Description: Growth inhibition of human WSUDLCL2 cells assessed as reduction in cell viability measured after 48 hrs by SRB method.
The next assay concerns NALM-6. Description: Growth inhibition of human NALM-6 cells assessed as reduction in cell viability measured after 48 hrs by SRB method.
A further assay has as its system K562. Description: Growth inhibition of human K562 cells assessed as reduction in cell viability measured after 48 hrs by SRB method.
The test system of the next assay is RPMI 8402. As to the kind of experiment: Growth inhibition of human RPMI 8402 cells assessed as reduction in cell viability measured after 48 hrs by SRB method.
For another assay, the system named is U-266. As to the kind of experiment: Growth inhibition of human U-266 cells assessed as reduction in cell viability measured after 48 hrs by SRB method.

Counter-ions that a name gives are not always drawn. A value given as a limit tells only on which side of the number the result lay.

Consider `CC[C@@H](O)CCCCCCCCCNC(C)=O`, for which the 50% growth inhibitory concentration (GI50) is 5.3 µM in [1]; 5.7 µM with ACHN; 4.7 µM with MDA-MB-231; 4.6 µM in the assay on HCT-15; 5.1 µM with PC-3; 3900 nM in the assay with NUGC-3. The GI50 in the assay with NCI-H23 was 5.3 µM; in [2] it was 4.7 µM; with HL-60 it was more than 30 µM; with Raji, more than 30 µM; with WSUDLCL2, 14 µM; in the assay with NALM-6 it was more than 30 µM. The GI50 with K562, with RPMI 8402 and in the assay on U-266 was more than 30 µM throughout.
Regarding `CC(=O)NCCCCCCCCC[C@@H](O)[C@H](C)O`, the 50% growth inhibitory concentration (GI50) in assay [1] was 6.7 µM; with ACHN it was 6.4 µM; with MDA-MB-231, 7.5 µM; with HCT-15 it was 5.8 µM; in the assay on PC-3, 7.3 µM; in the assay with NUGC-3 it was 6600 nM. Moreover, the 50% growth inhibitory concentration (GI50) is 7.2 µM in the assay on NCI-H23; 17 µM in assay [2]; more than 30 µM in the assay with HL-60; more than 30 µM in the assay with Raji; more than 30 µM with WSUDLCL2; more than 30 µM in the assay with NALM-6. Moreover, the 50% growth inhibitory concentration (GI50) with K562, in the assay on RPMI 8402 and in the assay on U-266 was more than 30 µM throughout.
On to `CC(=O)NCCCCCCCCC[C@@H](O)[C@@H](C)O`, for which the GI50 in assay [1] stood at 2 µM; with ACHN it was 1.6 µM; in the assay on MDA-MB-231, 2 µM; in the assay with HCT-15, 2.1 µM; in the assay with PC-3, 1.7 µM; in the assay with NUGC-3, 1400 nM. The 50% growth inhibitory concentration (GI50) in the assay on NCI-H23 is 1.9 µM; in [2], 3.1 µM; with HL-60, more than 30 µM; in the assay on Raji, more than 30 µM; with WSUDLCL2 it was 8.3 µM; with NALM-6 it was more than 30 µM. The GI50 in the assay on K562, in the assay with RPMI 8402 and in the assay with U-266 was more than 30 µM throughout.
`CC(=O)NCCCCCCCCCO`: the GI50 amounted to 2.8 µM in assay [1]; 2.3 µM in the assay with ACHN; 2.6 µM in the assay on MDA-MB-231; 2.6 µM in the assay with HCT-15; 2 µM in the assay with PC-3; 1500 nM in the assay on NUGC-3. Besides, the concentration for 50% growth inhibition (GI50) was 2.1 µM with NCI-H23; 0.5 µM in assay [2]; 15 µM in the assay with HL-60; more than 30 µM in the assay with Raji; 1.3 µM in the assay with WSUDLCL2; 18 µM with NALM-6. Further, the values for the GI50 in the assay with K562, in the assay with RPMI 8402 and with U-266 were 19 µM, 4.4 µM and more than 30 µM, respectively.
`CC(=O)NCCCCCCCCCC(=O)CCO`: the GI50 turned out to be 20 µM in assay [1]; 16 µM in the assay with ACHN; 18 µM in the assay with MDA-MB-231; 15 µM in the assay on HCT-15; 19 µM in the assay on PC-3; 17000 nM in the assay on NUGC-3. For the same compound, the GI50 in the assay on NCI-H23 is 18 µM; in [2], 28 µM; with HL-60 it was more than 30 µM; in the assay with Raji it was more than 30 µM; with WSUDLCL2, more than 30 µM; with NALM-6 it was more than 30 µM. In addition, the GI50 in the assay with K562, with RPMI 8402 and in the assay on U-266 was more than 30 µM in each case.
As for `CC(=O)CCCCCCCCCCNC(C)=O`, the 50% growth inhibitory concentration (GI50) was more than 30 µM in assay [1]; more than 30 µM in the assay on ACHN; more than 30 µM in the assay with MDA-MB-231; more than 30 µM in the assay with HCT-15; more than 30 µM in the assay with PC-3; more than 30000 nM in the assay on NUGC-3. Also, the GI50 (in the assay with NCI-H23; in assay [2]; with HL-60; in the assay with Raji; with WSUDLCL2; in the assay on NALM-6) was more than 30 µM in each case. For the same compound, the GI50 with K562, in the assay on RPMI 8402 and in the assay on U-266 was more than 30 µM each time.
Consider `CC(=O)NCCCCCCCCC[C@@H](O)CCO`, for which the GI50 in assay [1] was 4 µM; in the assay on ACHN it was 5.8 µM; in the assay on MDA-MB-231, 4.6 µM; in the assay on HCT-15 it was 5.4 µM; in the assay on PC-3, 5.5 µM; in the assay on NUGC-3, 3000 nM. In addition, the GI50 was 4.6 µM in the assay with NCI-H23; 2.9 µM in [2]; more than 30 µM with HL-60; more than 30 µM in the assay with Raji; 5.6 µM in the assay with WSUDLCL2; more than 30 µM with NALM-6. The concentration for 50% growth inhibition (GI50) in the assay on K562 is 28 µM; with RPMI 8402, 25 µM; with U-266 it was more than 30 µM.
For `CC(=O)NCCCCCCCCCC[C@H](O)CO`, the GI50 in assay [1] stood at 0.6 µM; in the assay with ACHN, 0.5 µM; with MDA-MB-231, 0.5 µM; with HCT-15, 0.5 µM; with PC-3 it was 0.5 µM; in the assay with NUGC-3, 400 nM. The GI50 came out at 0.5 µM in the assay on NCI-H23; 0.1 µM in assay [2]; 1.3 µM with HL-60; 26 µM in the assay on Raji; 0.2 µM in the assay on WSUDLCL2; 1.5 µM with NALM-6. Moreover, the GI50 in the assay on K562 is 1.5 µM; in the assay with RPMI 8402 it was 0.6 µM; in the assay with U-266 it was more than 30 µM.
Take `CC(=O)NCCCCCCCCCC[C@@H](C)O`: the 50% growth inhibitory concentration (GI50) in [1] was found to be 19 µM; in the assay with ACHN, 23 µM; in the assay on MDA-MB-231 it was 20 µM; in the assay on HCT-15 it was 16 µM; with PC-3 it was 19 µM; in the assay with NUGC-3, 19000 nM. Moreover, the GI50 in the assay with NCI-H23 is 22 µM; in assay [2] it was more than 30 µM; in the assay on HL-60 it was more than 30 µM; with Raji, more than 30 µM; in the assay with WSUDLCL2, more than 30 µM; in the assay with NALM-6 it was more than 30 µM. The GI50 in the assay with K562, with RPMI 8402 and in the assay on U-266 was more than 30 µM throughout.
For the compound `CCC(=O)CCCCCCCCCNC(C)=O`, the GI50 in assay [1] was more than 30 µM; in the assay on ACHN it was more than 30 µM; in the assay on MDA-MB-231, more than 30 µM; in the assay with HCT-15, more than 30 µM; in the assay on PC-3, more than 30 µM; in the assay with NUGC-3, more than 30000 nM. In addition, the GI50 in the assay on NCI-H23 was more than 30 µM; in assay [2], more than 30 µM; with HL-60, more than 30 µM; in the assay with Raji, 19 µM; in the assay on WSUDLCL2, more than 30 µM; in the assay with NALM-6, more than 30 µM. The GI50 in the assay on K562, in the assay with RPMI 8402 and in the assay with U-266 was more than 30 µM each time.
`CC(=O)CCCCCCCCNC(C)=O`: the concentration for 50% growth inhibition (GI50) in [1] came out at 1.1 µM; in the assay on ACHN it was 1.1 µM; in the assay on MDA-MB-231, 1.1 µM; in the assay on HCT-15, 1.1 µM; with PC-3 it was 0.8 µM; with NUGC-3, 700 nM. Also, the concentration for 50% growth inhibition (GI50) in the assay with NCI-H23 was 1 µM; in [2], 0.4 µM; in the assay on HL-60, 7.9 µM; in the assay with Raji, 0.4 µM; in the assay with WSUDLCL2 it was 0.8 µM; with NALM-6 it was 9.2 µM. Moreover, the concentration for 50% growth inhibition (GI50) in the assay on K562 was 11 µM; in the assay on RPMI 8402 it was 2.5 µM; in the assay on U-266, more than 30 µM.
Regarding `COc1cccc2c1C(=O)c1c(O)c3c(c(O)c1C2=O)C[C@@](O)(C(=O)CO)C[C@@H]3O[C@H]1C[C@H](N)[C@H](O)[C@H](C)O1` [DOXORUBICIN HYDROCHLORIDE], the 50% growth inhibitory concentration (GI50) in assay [1] stood at 0.08 µM; with ACHN, 0.081 µM; with MDA-MB-231, 0.077 µM; in the assay on HCT-15, 0.087 µM; with PC-3, 0.085 µM; in the assay on NUGC-3 it was 93 nM. The 50% growth inhibitory concentration (GI50) with NCI-H23 turned out to be 0.072 µM; in assay [2] it was 0.007 µM; in the assay on HL-60 it was 0.002 µM; in the assay with Raji, 0.008 µM; in the assay on WSUDLCL2 it was 0.004 µM; in the assay with NALM-6, 0.003 µM. The concentration for 50% growth inhibition (GI50) in the assay on K562 worked out at 0.007 µM; with RPMI 8402, 0.01 µM; in the assay on U-266, 0.004 µM.
